Measured values reported in patent publication US20100056482A1, “Calixarene Derivatives as Anticancer Agent” (CENTRE NATIONAL DE LA RECHERCHE SCIENTIFIQUE-CNRS, priority 2006, published 2010).

How the values were obtained:
Format in all cases: cell-based
[1] = system: keratinocytes, non tumoral cells; assay: MTS cell viability, keratinocytes (Example 2); settings: Keratinocyte, Keratonicytes, MTS on 3rd day
Method: (§1) The cells (0.2×10^6/ml) were incubated in a sterile fashion in 100 μl of culture medium (RPMI-1640 supplemented with 10% foetal calf serum, penicillin, streptomycin and amphotericin B) at day DO with variable quantities (from […]) of C4diP, tBuC4diP or C8C4diP at 37° C. and 5% CO2 in a water-saturated atmosphere. On the 3rd day, 20 μl of MTS (non radioactive cell proliferation test (Promega Cat. #: G 3580) are added to the previous 100 μl and then a spectrophotometric reading is carried out at 490 nm after 2 hours of incubation against reagent blanks.
(§2) The cell lines used are as follows: • keratinocytes • WBC: leucocytes • MEWO: human skin melanoma • jurkat: T-cell acute lymphoblastic leukaemia. Cells of the T-lymphocyte type. • HL-60: promyelocytary acute leukaemia. Cells of the promyeloblast type. • Huh7: human hepatoma • Hep-G2: hepatocellular carcinoma.
(§3) The anticancerous effect of C4diP, tBuC4diP and C8C4diP is evaluated by measuring cell viability as a function of variable quantities of these compounds.
(§4) In order to determine the anticancer effect of C4diP, tBuC4diP and C8C4diP on a particular tumour cell culture, the IC50 was calculated.

[2] = system: WBC (leucocytes), non tumoral cells; assay: MTS cell viability, WBC (Example 2); settings: Leucocyte, MTS on 3rd day
Method: as §1, §2, §3, §4

[3] = system: MEWO human skin melanoma cells; assay: MTS cell viability, Mewo (Example 2); settings: MTS on 3rd day
Method: as §1, §2, §3, §4

[4] = system: Huh7 human hepatoma cells; assay: MTS cell viability, Huh7 (Example 2); settings: Huh 7, MTS on 3rd day
Method: as §1, §2, §3, §4

[5] = system: HL-60 promyelocytary acute leukaemia cells; assay: MTS cell viability, HL-60 (Example 2); settings: Homo sapiens; HL-60, MTS on 3rd day
Method: as §1, §2, §3, §4

[6] = system: jurkat T-cell acute lymphoblastic leukaemia cells; assay: MTS cell viability, Jurkat (Example 2); settings: Homo sapiens, MTS on 3rd day
Method: as §1, §2, §3, §4

[7] = system: Hep-G2 hepatocellular carcinoma cells; assay: MTS cell viability, HepG2 (Example 2); settings: Homo sapiens; HepG2, MTS on 3rd day
Method: as §1, §2, §3, §4

[8] = system: human PBMC (peripheral blood mononuclear cells); assay: MTS cell viability, human PBMC primary culture (Example 3); settings: primary culture of human PBMC (WBC, healthy lymphocytes), read-out: IC50 (mean concentration for 50% mortality)
Method: as §1, with “C4diP” for “C4diP, tBuC4diP or C8C4diP”, “At” for “On”, “4th” for “3rd”, “(non-radioactive” for “(non radioactive”, “is” for “are”
In order to determine the anticancer effect of C4diP on a particular culture of tumour cells, the IC50 was calculated.
The protocol used is that described previously in example 1. When vinblastin is used in the culture medium, it replaces C4diP.

Compound | IC50 [1] | IC50 [2] | IC50 [3] | IC50 [4] | IC50 [5] | IC50 [6] | IC50 [7] | IC50 [8]
CCCCCCCC(=O)/C(C)=C/C(Cc1cc(C(=O)CCCCCCC)cc(Cc2cc(C(=O)CCCCCCC)cc(Cc3cc(C(=O)CCCCCCC)cc(CC)c3OP(=O)(O)O)c2O)c1OP(=O)(O)O)=C(\C)O [C8C4diP, para-octanoyl-calyx[4]arene dihydroxyphosphonic acid] | 46 µM | 95 µM | 1000 µM | 270 µM | 1000 µM | 113 µM | 1000 µM | 
CC[C@]1(O)C[C@@H]2CN(CCc3c([nH]c4ccccc34)[C@@](C(=O)OC)(c3cc4c(cc3OC)N(C)[C@H]3[C@@](O)(C(=O)OC)[C@H](OC(C)=O)[C@]5(CC)C=CCN6CC[C@]43[C@@H]65)C2)C1 [vinblastin, reference compound] |  |  |  |  |  |  |  | 0.005 µM
